Tests used:
Assay type in all cases: functional
SN12C = assay: Growth inhibition of human SN12C cells assessed as cell growth at 3X10'-6 M after 48 hrs by sulforhodamine B assay; conditions: read-out: Activity
T47D [1] = assay: Growth inhibition of human T47D cells assessed as cell growth at 3X10'-9 M after 48 hrs by sulforhodamine B assay; conditions: read-out: Activity
LOX IMVI = assay: Growth inhibition of human LOXIMVI cells assessed as cell growth at 3X10'-8 M after 48 hrs by sulforhodamine B assay; conditions: read-out: Activity
CCRF-CEM = assay: Growth inhibition of human CCRF-CEM cells assessed as cell growth at 3X10'-8 M after 48 hrs by sulforhodamine B assay; conditions: read-out: Activity
UACC-62 = assay: Growth inhibition of human UACC62 cells assessed as cell growth at 3X10'-9 M after 48 hrs by sulforhodamine B assay; conditions: UACC-62, 48 h, read-out: Activity
HT-29 [2] = assay: Growth inhibition of human HT-29 cells assessed as cell growth at 3X10'-9 M after 48 hrs by sulforhodamine B assay; conditions: HT-29, 48 h, read-out: Activity
SF-539 [3] = assay: Growth inhibition of human SF539 cells assessed as cell growth at 3X10'-5 M after 48 hrs by sulforhodamine B assay; conditions: SF-539, 48 h, read-out: Activity
SNB-75 [4] = assay: Growth inhibition of human SNB75 cells assessed as cell growth at 3X10'-8 M after 48 hrs by sulforhodamine B assay; conditions: SNB-75, 48 h, read-out: Activity
HT-29 [5] = assay: Growth inhibition of human HT-29 cells assessed as cell growth at 3X10'-5 M after 48 hrs by sulforhodamine B assay; conditions: HT-29, 48 h, read-out: Activity
CAKI-1 [6] = assay: Growth inhibition of human CAKI-1 cells assessed as cell growth at 3X10'-9 M after 48 hrs by sulforhodamine B assay; conditions: CAKI-1, 48 h, read-out: Activity
A498 = assay: Growth inhibition of human A498 cells assessed as cell growth at 3X10'-5 M after 48 hrs by sulforhodamine B assay; conditions: A498, 48 h, read-out: Activity
PC-3 = assay: Growth inhibition of human PC3 cells assessed as cell growth at 3X10'-5 M after 48 hrs by sulforhodamine B assay; conditions: PC-3, 48 h, read-out: Activity
CAKI-1 [7] = assay: Growth inhibition of human CAKI-1 cells assessed as cell growth at 3X10'-8 M after 48 hrs by sulforhodamine B assay; conditions: CAKI-1, 48 h, read-out: Activity
SF-295 = assay: Growth inhibition of human SF295 cells assessed as cell growth at 3X10'-8 M after 48 hrs by sulforhodamine B assay; conditions: SF-295, 48 h, read-out: Activity
U-251 = assay: Growth inhibition of human U251 cells assessed as cell growth at 3X10'-8 M after 48 hrs by sulforhodamine B assay; conditions: U-251, 48 h, read-out: Activity
CAKI-1 [8] = assay: Growth inhibition of human CAKI-1 cells assessed as cell growth at 3X10'-7 M after 48 hrs by sulforhodamine B assay; conditions: CAKI-1, 48 h, read-out: Activity
SW-620 = assay: Growth inhibition of human SW620 cells assessed as cell growth at 3X10'-7 M after 48 hrs by sulforhodamine B assay; conditions: SW-620, 48 h, read-out: Activity
HCT-116 = assay: Growth inhibition of human HCT116 cells assessed as cell growth at 3X10'-8 M after 48 hrs by sulforhodamine B assay; conditions: HCT-116, 48 h, read-out: Activity
OVCAR-3 [9] = assay: Growth inhibition of human OVCAR3 cells assessed as cell growth at 3X10'-9 M after 48 hrs by sulforhodamine B assay; conditions: OVCAR-3, 48 h, read-out: Activity
T47D [10] = assay: Growth inhibition of human T47D cells assessed as cell growth at 3X10'-8 M after 48 hrs by sulforhodamine B assay; conditions: read-out: Activity
SF-268 = assay: Growth inhibition of human SF268 cells assessed as cell growth at 3X10'-9 M after 48 hrs by sulforhodamine B assay; conditions: SF-268, 48 h, read-out: Activity
A549 = assay: Growth inhibition of human A549/ATCC cells assessed as cell growth at 3X10'-8 M after 48 hrs by sulforhodamine B assay; conditions: A549, 48 h, read-out: Activity
[11] = Growth inhibition of human NCI-ADR-RES cells assessed as cell growth at 3X10'-6 M after 48 hrs by sulforhodamine B assay; conditions: read-out: Activity
HT-29 [12] = assay: Growth inhibition of human HT-29 cells assessed as cell growth at 3X10'-6 M after 48 hrs by sulforhodamine B assay; conditions: HT-29, 48 h, read-out: Activity
[13] = Growth inhibition of human NCI-ADR-RES cells assessed as cell growth at 3X10'-8 M after 48 hrs by sulforhodamine B assay; conditions: read-out: Activity
OVCAR-8 = assay: Growth inhibition of human OVCAR8 cells assessed as cell growth at 3X10'-9 M after 48 hrs by sulforhodamine B assay; conditions: OVCAR-8, 48 h, read-out: Activity
RPMI-8226 = assay: Growth inhibition of human RPMI8226 cells assessed as cell growth at 3X10'-7 M after 48 hrs by sulforhodamine B assay; conditions: RPMI-8226, 48 h, read-out: Activity
SF-539 [14] = assay: Growth inhibition of human SF539 cells assessed as cell growth at 3X10'-9 M after 48 hrs by sulforhodamine B assay; conditions: SF-539, 48 h, read-out: Activity
OVCAR-5 = assay: Growth inhibition of human OVCAR5 cells assessed as cell growth at 3X10'-7 M after 48 hrs by sulforhodamine B assay; conditions: OVCAR-5, 48 h, read-out: Activity
SNB-75 [15] = assay: Growth inhibition of human SNB75 cells assessed as cell growth at 3X10'-5 M after 48 hrs by sulforhodamine B assay; conditions: SNB-75, 48 h, read-out: Activity
HOP-92 = assay: Growth inhibition of human HOP92 cells assessed as cell growth at 3X10'-9 M after 48 hrs by sulforhodamine B assay; conditions: HOP-92, 48 h, read-out: Activity
MCF7 = assay: Growth inhibition of human MCF7 cells assessed as cell growth at 3X10'-5 M after 48 hrs by sulforhodamine B assay; conditions: MCF7, 48 h, read-out: Activity
RXF 393 = assay: Growth inhibition of human RXF393 cells assessed as cell growth at 3X10'-8 M after 48 hrs by sulforhodamine B assay; conditions: RXF 393, 48 h, read-out: Activity
HOP-62 = assay: Growth inhibition of human HOP62 cells assessed as cell growth at 3X10'-7 M after 48 hrs by sulforhodamine B assay; conditions: HOP-62, 48 h, read-out: Activity
OVCAR-3 [16] = assay: Growth inhibition of human OVCAR3 cells assessed as cell growth at 3X10'-8 M after 48 hrs by sulforhodamine B assay; conditions: OVCAR-3, 48 h, read-out: Activity
SR = assay: Growth inhibition of human SR cells assessed as cell growth at 3X10'-9 M after 48 hrs by sulforhodamine B assay; conditions: read-out: Activity
NCI-H460 = assay: Growth inhibition of human NCI-H460 cells assessed as cell growth at 3X10'-7 M after 48 hrs by sulforhodamine B assay; conditions: NCI-H460, 48 h, read-out: Activity
IGROV-1 = assay: Growth inhibition of human IGROV1 cells assessed as cell growth at 3X10'-6 M after 48 hrs by sulforhodamine B assay; conditions: IGROV-1, 48 h, read-out: Activity

Structure (SMILES) | growth at 3 µM (SN12C) [%] | growth at 0.003 µM (T47D [1]) [%] | growth at 0.03 µM (LOX IMVI) [%] | growth at 0.03 µM (CCRF-CEM) [%] | growth at 0.003 µM (UACC-62) [%] | growth at 0.003 µM (HT-29 [2]) [%] | growth at 30 µM (SF-539 [3]) [%] | growth at 0.03 µM (SNB-75 [4]) [%] | growth at 30 µM (HT-29 [5]) [%] | growth at 0.003 µM (CAKI-1 [6]) [%] | growth at 30 µM (A498) [%] | growth at 30 µM (PC-3) [%] | growth at 0.03 µM (CAKI-1 [7]) [%] | growth at 0.03 µM (SF-295) [%] | growth at 0.03 µM (U-251) [%] | growth at 0.3 µM (CAKI-1 [8]) [%] | growth at 0.3 µM (SW-620) [%] | growth at 0.03 µM (HCT-116) [%] | growth at 0.003 µM (OVCAR-3 [9]) [%] | growth at 0.03 µM (T47D [10]) [%] | other results
O=C(Nc1cccc(-n2cc(-c3ccncc3)c(-c3ccc(Cl)c(O)c3)n2)c1)Nc1ccc(Cl)c(C(F)(F)F)c1 | 15 | 102 | 99 | 97 | 98 | 97 | -37 | 92 | -63 | 89 | -49 | -19 | 91 | 92 | 96 | 87 | 105 | 106 | 109 | 103 | growth at 0.003 µM (SF-268): 101%; growth at 0.03 µM (A549): 94%; growth at 3 µM [11]: -7%; growth at 3 µM (HT-29 [12]): 21%; growth at 0.03 µM [13]: 102%; growth at 0.003 µM (OVCAR-8): 100%; growth at 0.3 µM (RPMI-8226): 73%; growth at 0.003 µM (SF-539 [14]): 99%; growth at 0.3 µM (OVCAR-5): 88%; growth at 30 µM (SNB-75 [15]): -31%; growth at 0.003 µM (HOP-92): 79%; growth at 30 µM (MCF7): 2%; growth at 0.03 µM (RXF 393): 93%; growth at 0.3 µM (HOP-62): 104%; growth at 0.03 µM (OVCAR-3 [16]): 113%; growth at 0.003 µM (SR): 106%; growth at 0.3 µM (NCI-H460): 94%; growth at 3 µM (IGROV-1): -17%
COc1cc(-c2nn(-c3cccc(NC(=O)Nc4ccc(Cl)c(C(F)(F)F)c4)c3)cc2-c2ccncc2)ccc1Cl | 16 | 101 | 100 | 95 | 95 | 105 | -80 | 93 | -63 | 92 | -25 | -20 | 94 | 90 | 94 | 93 | 100 | 103 | 105 | 101 | growth at 0.003 µM (SF-268): 97%; growth at 0.03 µM (A549): 94%; growth at 3 µM [11]: 3%; growth at 3 µM (HT-29 [12]): 10%; growth at 0.03 µM [13]: 108%; growth at 0.003 µM (OVCAR-8): 105%; growth at 0.3 µM (RPMI-8226): 87%; growth at 0.003 µM (SF-539 [14]): 97%; growth at 0.3 µM (OVCAR-5): 89%; growth at 30 µM (SNB-75 [15]): -24%; growth at 0.003 µM (HOP-92): 68%; growth at 30 µM (MCF7): 2%; growth at 0.03 µM (RXF 393): 93%; growth at 0.3 µM (HOP-62): 93%; growth at 0.03 µM (OVCAR-3 [16]): 109%; growth at 0.003 µM (SR): 105%; growth at 0.3 µM (NCI-H460): 101%; growth at 3 µM (IGROV-1): 5%

From ChEMBL document CHEMBL2440076, “New triarylpyrazoles as broad-spectrum anticancer agents: design, synthesis, and biological evaluation” (Eur J Med Chem, 2013)
